We go through 35 compounds from ChEMBL document CHEMBL6092156, “Design and development of a series of 4-(piperazin-1-yl)pyrimidines as irreversible menin inhibitors” (Eur J Med Chem, 2024).

pIC50: −log10 of the molar value. Bounds are passed on as bounds.

In data set [1] the test system is MV4-11. Put plainly: Antiproliferative activity against human menin-sensitive MV4-11 cells assessed as inhibition of cell growth incubated for 7 days by MTS assay. It is filed as functional, cell-based. The note with it: MV4-11, 168 h.
Data set [2] has as its target Menin/Histone-lysine N-methyltransferase MLL (Homo sapiens, UniProt O00255). The data set can be described thus: Inhibition of menin (unknown origin)/N-terminal FITC-labeled MLL1 peptide (unknown origin) interaction incubated for 30 min by fluorescence polarization assay. It is filed as protein assay. (Polarisation of emitted light reports the rotation of a fluorescent probe.)

A further data set deals with REH. Put plainly: Antiproliferative activity against human menin-insensitive REH cells assessed as inhibition of cell growth incubated for 7 days by MTS assay. The data set is classed as functional, cell-based. The settings on record: 168 h. On the technique in general: Tetrazolium assays rely on reduction of a dye to a coloured formazan, in cell work by metabolically active cells.

Data set [3] is described as follows: Cytotoxicity against human PBMC cells assessed as cell viability incubated for 7 days by MTS assay. It is filed as toxicity, cell-based.
A short description of data set [4]: Suppression of MEN1 gene transcription in human MV4-11 cells assessed as protein synthesis by measuring fold change at 20 nM incubated for 16 hrs relative to control. It is filed as functional.
The subject of data set [5] is MV4-11. The data set can be described thus: Antiproliferative activity against human MV4-11 cells assessed as cell growth inhibition after 4 days. The settings on record: MV4-11, 96 h. The data set is classed as functional, cell-based.
The nature of data set [6]: Suppression of MEN1 gene transcription in human MV4-11 cells assessed as protein synthesis by measuring fold change at 50 ug/ml incubated for 24 hrs relative to control. The data set is classed as functional. The settings on record: dose 50 µg/ml.
A short description of data set [7]: Suppression of MEN1 gene transcription in human MV4-11 cells assessed as protein synthesis by measuring fold change at 50 ug/ml incubated for 12 hrs relative to control. The data set is classed as functional. The settings on record: dose 50 µg/ml.
A short description of data set [8]: Suppression of MEN1 gene transcription in human MV4-11 cells assessed as protein synthesis by measuring fold change at 50 ug/ml incubated for 48 hrs relative to control. The settings on record: dose 50 µg/ml. It is filed as functional.
The nature of data set [9]: Suppression of MEN1 gene transcription in human MV4-11 cells assessed as protein synthesis by measuring fold change at 50 ug/ml incubated for 36 hrs relative to control. It is filed as functional. The note with it: dose 50 µg/ml.

Sequence of Menin/Histone-lysine N-methyltransferase MLL (O00255 whole entry): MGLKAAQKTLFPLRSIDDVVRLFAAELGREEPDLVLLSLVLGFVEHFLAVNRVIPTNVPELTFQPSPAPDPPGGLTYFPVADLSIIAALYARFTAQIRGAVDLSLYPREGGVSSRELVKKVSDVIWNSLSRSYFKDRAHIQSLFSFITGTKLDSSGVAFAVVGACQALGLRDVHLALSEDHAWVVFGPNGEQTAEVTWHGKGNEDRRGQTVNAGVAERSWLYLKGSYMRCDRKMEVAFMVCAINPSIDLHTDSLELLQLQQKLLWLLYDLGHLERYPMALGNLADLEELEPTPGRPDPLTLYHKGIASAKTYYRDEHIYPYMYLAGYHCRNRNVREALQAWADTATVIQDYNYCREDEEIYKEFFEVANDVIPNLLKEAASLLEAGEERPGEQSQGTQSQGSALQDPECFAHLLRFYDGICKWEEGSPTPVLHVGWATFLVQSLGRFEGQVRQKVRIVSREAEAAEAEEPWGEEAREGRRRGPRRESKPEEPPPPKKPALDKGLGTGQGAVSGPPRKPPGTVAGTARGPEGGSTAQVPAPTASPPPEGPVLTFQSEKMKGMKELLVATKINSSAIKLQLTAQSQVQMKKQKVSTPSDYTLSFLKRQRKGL
Sequence of Menin/Histone-lysine N-methyltransferase MLL (Q03164 1-2718 partner limits assumed): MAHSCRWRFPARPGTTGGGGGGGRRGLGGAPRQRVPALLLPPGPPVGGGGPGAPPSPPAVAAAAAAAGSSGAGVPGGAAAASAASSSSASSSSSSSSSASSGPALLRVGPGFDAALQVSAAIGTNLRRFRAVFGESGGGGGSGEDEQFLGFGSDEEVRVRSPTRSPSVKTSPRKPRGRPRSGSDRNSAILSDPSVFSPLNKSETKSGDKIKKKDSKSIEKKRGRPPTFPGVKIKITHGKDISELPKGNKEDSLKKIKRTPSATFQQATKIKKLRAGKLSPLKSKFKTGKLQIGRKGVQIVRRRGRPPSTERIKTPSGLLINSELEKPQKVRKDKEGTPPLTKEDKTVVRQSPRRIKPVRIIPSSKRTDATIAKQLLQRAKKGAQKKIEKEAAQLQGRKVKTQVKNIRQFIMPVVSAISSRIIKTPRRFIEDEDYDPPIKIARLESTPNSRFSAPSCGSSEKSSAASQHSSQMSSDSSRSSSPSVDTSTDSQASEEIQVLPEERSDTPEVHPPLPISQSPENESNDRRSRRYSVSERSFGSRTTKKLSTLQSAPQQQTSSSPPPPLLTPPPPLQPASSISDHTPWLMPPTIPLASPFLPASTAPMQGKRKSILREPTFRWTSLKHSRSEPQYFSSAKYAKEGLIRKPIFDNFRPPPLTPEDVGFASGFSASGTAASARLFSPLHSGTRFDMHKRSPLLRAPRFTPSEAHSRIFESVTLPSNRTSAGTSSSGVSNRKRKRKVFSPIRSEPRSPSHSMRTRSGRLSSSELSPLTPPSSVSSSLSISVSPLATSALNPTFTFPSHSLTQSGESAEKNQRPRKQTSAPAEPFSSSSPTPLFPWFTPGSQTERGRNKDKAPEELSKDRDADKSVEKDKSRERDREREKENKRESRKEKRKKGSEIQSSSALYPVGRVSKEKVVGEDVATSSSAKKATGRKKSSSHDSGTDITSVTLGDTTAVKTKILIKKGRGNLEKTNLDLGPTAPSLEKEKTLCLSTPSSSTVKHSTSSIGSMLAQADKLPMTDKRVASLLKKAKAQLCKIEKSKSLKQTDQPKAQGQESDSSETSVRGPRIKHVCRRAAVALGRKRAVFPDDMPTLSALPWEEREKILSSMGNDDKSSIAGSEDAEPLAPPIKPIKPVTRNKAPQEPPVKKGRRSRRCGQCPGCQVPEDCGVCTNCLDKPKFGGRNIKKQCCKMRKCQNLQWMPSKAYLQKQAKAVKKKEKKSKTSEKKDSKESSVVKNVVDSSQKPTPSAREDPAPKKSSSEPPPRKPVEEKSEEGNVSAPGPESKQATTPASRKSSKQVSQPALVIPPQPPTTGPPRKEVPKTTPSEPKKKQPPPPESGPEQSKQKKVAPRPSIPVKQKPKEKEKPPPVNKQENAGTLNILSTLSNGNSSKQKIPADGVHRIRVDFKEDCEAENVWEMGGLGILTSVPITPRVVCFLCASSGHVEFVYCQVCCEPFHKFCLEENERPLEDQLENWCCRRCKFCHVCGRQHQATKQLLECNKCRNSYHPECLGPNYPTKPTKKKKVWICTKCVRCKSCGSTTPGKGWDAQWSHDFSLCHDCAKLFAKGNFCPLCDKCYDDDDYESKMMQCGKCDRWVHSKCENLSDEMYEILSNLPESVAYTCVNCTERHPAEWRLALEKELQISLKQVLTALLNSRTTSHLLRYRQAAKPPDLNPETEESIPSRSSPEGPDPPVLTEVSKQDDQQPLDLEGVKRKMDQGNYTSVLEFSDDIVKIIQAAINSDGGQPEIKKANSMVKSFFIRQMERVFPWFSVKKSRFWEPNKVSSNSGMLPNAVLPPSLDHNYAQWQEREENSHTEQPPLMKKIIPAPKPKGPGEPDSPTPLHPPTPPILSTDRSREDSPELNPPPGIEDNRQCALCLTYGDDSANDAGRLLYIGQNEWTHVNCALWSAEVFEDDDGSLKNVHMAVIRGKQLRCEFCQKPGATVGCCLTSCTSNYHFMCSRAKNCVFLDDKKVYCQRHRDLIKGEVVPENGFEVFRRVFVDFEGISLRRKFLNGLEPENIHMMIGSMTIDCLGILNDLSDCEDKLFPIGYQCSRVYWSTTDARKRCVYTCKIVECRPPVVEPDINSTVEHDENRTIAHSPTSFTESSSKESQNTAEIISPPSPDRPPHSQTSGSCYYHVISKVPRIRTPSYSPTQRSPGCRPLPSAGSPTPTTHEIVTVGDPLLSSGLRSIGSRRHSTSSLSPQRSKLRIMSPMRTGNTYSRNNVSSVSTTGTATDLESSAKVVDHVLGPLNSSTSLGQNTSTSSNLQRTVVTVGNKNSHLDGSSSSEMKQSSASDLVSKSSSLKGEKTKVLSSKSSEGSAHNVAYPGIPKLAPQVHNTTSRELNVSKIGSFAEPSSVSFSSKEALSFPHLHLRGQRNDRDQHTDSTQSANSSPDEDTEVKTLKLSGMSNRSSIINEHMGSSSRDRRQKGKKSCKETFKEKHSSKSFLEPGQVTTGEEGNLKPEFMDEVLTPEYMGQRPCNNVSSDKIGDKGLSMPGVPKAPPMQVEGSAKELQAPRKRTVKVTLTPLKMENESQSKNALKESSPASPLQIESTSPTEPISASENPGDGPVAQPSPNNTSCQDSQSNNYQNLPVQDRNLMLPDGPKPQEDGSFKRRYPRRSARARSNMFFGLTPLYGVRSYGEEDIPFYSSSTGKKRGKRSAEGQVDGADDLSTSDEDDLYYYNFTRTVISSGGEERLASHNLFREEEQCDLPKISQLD
Sequence of Menin/Histone-lysine N-methyltransferase MLL (Q03164 2719-3969 partner limits assumed): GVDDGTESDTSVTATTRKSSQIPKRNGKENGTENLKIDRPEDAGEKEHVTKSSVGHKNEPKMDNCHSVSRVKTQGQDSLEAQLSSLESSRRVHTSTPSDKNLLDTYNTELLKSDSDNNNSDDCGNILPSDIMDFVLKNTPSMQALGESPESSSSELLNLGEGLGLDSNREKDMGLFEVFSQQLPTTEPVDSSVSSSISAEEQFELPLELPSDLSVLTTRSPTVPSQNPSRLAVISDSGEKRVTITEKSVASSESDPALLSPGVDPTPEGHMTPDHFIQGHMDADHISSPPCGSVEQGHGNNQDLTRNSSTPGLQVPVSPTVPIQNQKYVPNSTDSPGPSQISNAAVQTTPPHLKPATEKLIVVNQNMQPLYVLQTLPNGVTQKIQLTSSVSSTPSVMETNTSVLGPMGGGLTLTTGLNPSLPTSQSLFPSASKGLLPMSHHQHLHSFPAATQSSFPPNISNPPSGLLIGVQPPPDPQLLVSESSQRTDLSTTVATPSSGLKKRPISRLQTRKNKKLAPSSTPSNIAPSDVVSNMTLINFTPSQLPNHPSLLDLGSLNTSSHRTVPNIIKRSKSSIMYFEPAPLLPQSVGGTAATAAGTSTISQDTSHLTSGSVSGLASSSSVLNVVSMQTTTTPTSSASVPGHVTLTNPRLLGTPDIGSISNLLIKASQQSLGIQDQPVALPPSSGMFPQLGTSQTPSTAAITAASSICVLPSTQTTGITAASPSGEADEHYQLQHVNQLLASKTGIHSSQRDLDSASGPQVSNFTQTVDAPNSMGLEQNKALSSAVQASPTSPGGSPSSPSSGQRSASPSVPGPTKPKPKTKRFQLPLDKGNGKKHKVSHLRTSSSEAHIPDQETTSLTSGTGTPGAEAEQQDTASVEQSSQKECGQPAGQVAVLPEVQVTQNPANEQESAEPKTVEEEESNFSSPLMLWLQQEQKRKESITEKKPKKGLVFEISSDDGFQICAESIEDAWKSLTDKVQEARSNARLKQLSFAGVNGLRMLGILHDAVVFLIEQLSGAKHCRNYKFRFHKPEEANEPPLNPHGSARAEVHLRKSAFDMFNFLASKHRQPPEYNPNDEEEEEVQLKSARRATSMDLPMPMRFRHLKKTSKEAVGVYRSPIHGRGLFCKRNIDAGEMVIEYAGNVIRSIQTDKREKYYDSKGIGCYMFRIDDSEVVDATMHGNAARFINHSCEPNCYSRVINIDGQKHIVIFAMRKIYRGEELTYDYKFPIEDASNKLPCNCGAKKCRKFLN

By pIC50 is commonly meant the negative decadic logarithm of the IC50, by convention in mol/L. For `CCC(=O)Nc1cccc(N2CC(CN3CCN(c4ncncc4Nc4ccc(F)cc4C(=O)N(C(C)C)C(C)C)CC3)C2)c1`, the pIC50 with MV4-11 [1] was 5.82; in data set [2], 7.02; in the data set with REH it was less than 4.70.

For `CCN(C(=O)c1cc(F)ccc1Nc1cncnc1N1CCN(CC2CN(c3ccc(S(=O)(=O)N4CC[C@@H](NC(=O)/C=C/CN(C)C)C4)cc3)C2)CC1)C(C)C`, the values for the pIC50 (with MV4-11 [1]; in data set [2]; with REH) were 6.21, 7.95 and less than 4.70, respectively.

Turning to `CCN(C(=O)c1cc(F)ccc1Nc1cncnc1N1CCN(CC2CN(c3ccc(S(=O)(=O)C4CN(C(=O)/C=C/CN5CCCCC5)C4)cc3)C2)CC1)C(C)C`, the results for the pIC50 (in the data set with MV4-11 [1]; in data set [2]; in the data set on REH) were 7.52, 7.78 and 5.10, respectively.

On to `CCN(C(=O)c1cc(F)ccc1Nc1cncnc1N1CCN(CC2CN(c3ccc(NS(C)(=O)=O)cc3)C2)CC1)C(C)C`, for which the pIC50 in data set [2] was 7.56.

`CCN(C(=O)c1cc(F)ccc1Nc1cncnc1N1CCN(CC2CN(c3ccc(C(F)(F)F)cc3)C2)CC1)C(C)C` had a pIC50 in data set [2] of 6.73.

`CCN(C(=O)c1cc(F)ccc1Nc1cncnc1N1CCN(CC2CN(c3ccc(S(=O)(=O)C4CN(C(=O)/C=C/CN(C)C)C4)cc3)C2)CC1)C(C)C`: the pIC50 in the data set with MV4-11 [1] was 7.52; in [2] it was 7.85; with REH, 5.71.

Turning to `CCN(C(=O)c1cc(F)ccc1Nc1cncnc1N1CCN(CC2CN(c3ccc(S(N)(=O)=O)cc3)C2)CC1)C(C)C`, the pIC50 in data set [2] is 7.67.

As for `C=CC(=O)Nc1ccc(N2CC(CN3CCN(c4ncncc4Nc4ccc(F)cc4C(=O)N(C(C)C)C(C)C)CC3)C2)cc1`, the negative-log IC50 (pIC50) with MV4-11 [1] was 6.28; in data set [2] it was 7.47; in the data set with REH, 5.37.

On to `CCN(C(=O)c1cc(F)ccc1Nc1cncnc1N1CCN(CC2CN(c3ccc(S(C)(=O)=O)cc3)C2)CC1)C(C)C`, for which, in data set [2], the pIC50 was 7.18.

For `CCC(=O)Nc1ccc(N2CC(CN3CCN(c4ncncc4Nc4ccc(F)cc4C(=O)N(C(C)C)C(C)C)CC3)C2)cc1`, the pIC50 in the data set with MV4-11 [1] was 6.11; in data set [2], 7.32; in the data set with REH, 5.08.

As for `CCC(=O)N[C@H]1CCN(S(=O)(=O)c2ccc(N3CC(CN4CCN(c5ncncc5Nc5ccc(F)cc5C(=O)N(CC)C(C)C)CC4)C3)cc2)C1`, the pIC50 in the data set with MV4-11 [1] is 5.65; in data set [2], 7.21; in the data set with REH, less than 4.70.

A word on the IC50: it is the concentration at which inhibition is half-maximal. Take `CCN(C(=O)c1cc(F)ccc1Oc1cncnc1N1CC2(CCN(C[C@H]3CC[C@H](NS(=O)(=O)CC)CC3)CC2)C1)C(C)C` [REVUMENIB]: the IC50 at 7 days in [3] is greater than 3000 nM. For the same compound, the pIC50 in data set [2] was 7.81.

Consider `CC(C)C[C@H](NC(=O)[C@H](CCc1ccccc1)NC(=O)CN1CCOCC1)C(=O)N[C@@H](Cc1ccccc1)C(=O)N[C@@H](CC(C)C)C(=O)[C@@]1(C)CO1` [CARFILZOMIB], for which, in [4], the “fold change (FC)” value is reported as 1.16.

Take `CCN(C(=O)c1cc(F)ccc1Nc1cncnc1N1CCN(CC2CN(c3ccc(F)cc3)C2)CC1)C(C)C`: in data set [2], the pIC50 was 6.56.

For the compound `C=CC(=O)N1CC(S(=O)(=O)c2ccc(N3CC(CN4CCN(c5ncncc5Nc5ccc(F)cc5C(=O)N(C(C)C)C(C)C)CC4)C3)cc2)C1`, the values for the pIC50 (in the data set on MV4-11 [1]; in [2]; in the data set on REH) were 6.66, 7.47 and 5.32, respectively.

As to `C=CC(=O)N[C@H]1CCN(S(=O)(=O)c2ccc(N3CC(CN4CCN(c5ncncc5Nc5ccc(F)cc5C(=O)N(CC)C(C)C)CC4)C3)cc2)C1`, the pIC50 in the data set on MV4-11 [1] is 6.22; in data set [2] it was 7.29; in the data set on REH, less than 4.70.

Turning to `CCN(C(=O)c1cc(F)ccc1Nc1cncnc1N1CCN(CC2CN(c3ccc([N+](=O)[O-])cc3)C2)CC1)C(C)C`, the pIC50 in [2] is 7.30.

Turning to `CCN(C(=O)c1cc(F)ccc1Nc1cncnc1N1CCN(CC2CN(c3ccc(NC(=O)/C=C/CN(C)C)cc3)C2)CC1)C(C)C`, the pIC50 with MV4-11 [1] is 5.96; in [2], 7.21; with REH, less than 4.70.

As for `CCN(C(=O)c1cc(F)ccc1Nc1cncnc1N1CCN(CC2CN(c3ccc(S(=O)(=O)N4CC[C@H](NC(=O)/C=C/CN(C)C)C4)cc3)C2)CC1)C(C)C`, the values for the pIC50 (with MV4-11 [1]; in data set [2]; in the data set with REH) were 6.19, 7.78 and less than 4.70, respectively.

As for `CCC(=O)N1CC(S(=O)(=O)c2ccc(N3CC(CN4CCN(c5ncncc5Nc5ccc(F)cc5C(=O)N(C(C)C)C(C)C)CC4)C3)cc2)C1`, the pIC50 in the data set on MV4-11 [1] was 6.68; in [2] it was 7.48; in the data set on REH, less than 4.70.

For `CCN(C(=O)c1cc(F)ccc1Nc1cncnc1N1CCN(CC2CN(c3ccc(S(=O)(=O)N4CC(NC(=O)/C=C/CN(C)C)C4)cc3)C2)CC1)C(C)C`, the pIC50 is 6.55 with MV4-11 [1], 7.91 in [2] and less than 4.70 in the data set on REH.

Regarding `CCN(C(=O)c1cc(F)ccc1Nc1cncnc1N1C[C@@H](C)N(CC2CN(c3ccc(S(=O)(=O)C4CN(C(=O)/C=C/CN(C)C)C4)cc3)C2)C[C@@H]1C)C(C)C`, the pIC50 in the data set on MV4-11 [1] is 6.92; in data set [2], 7.65; in the data set with REH, 4.74.

Take `CCN(C(=O)c1cc(F)ccc1Nc1cncnc1N1CCN(C(C)C2CN(c3ccc(S(=O)(=O)C4CN(C(=O)/C=C/CN(C)C)C4)cc3)C2)CC1)C(C)C` (stereo not given): the pIC50 with MV4-11 [1] was 6.85; in data set [2], 7.74; with REH it was 5.10.

In the case of `CCN(C(=O)c1cc(F)ccc1Nc1cncnc1N1CCN(C(=O)C2CN(c3ccc(S(=O)(=O)C4CN(C(=O)/C=C/CN(C)C)C4)cc3)C2)CC1)C(C)C`, the pIC50 in the data set on MV4-11 [1] is 7.30; in [2], 7.89; in the data set with REH, less than 4.70.

On to `COC(=O)N[C@H]1CCC[C@@H]1[C@](C#N)(c1cccc(F)c1)C1CCN(CC2CN(c3ccc(S(=O)(=O)C4CN(C(=O)/C=C/CN(C)C)C4)cc3)C2)CC1`, for which the pIC50 with MV4-11 [5] is 8.57.

`CCC(=O)c1ccc(N2CC(CN3CCN(c4ncncc4Nc4ccc(F)cc4C(=O)N(CC)C(C)C)CC3)C2)cc1` had a pIC50 in [2] of 7.30.

Consider `C=CC(=O)N[C@@H]1CCN(S(=O)(=O)c2ccc(N3CC(CN4CCN(c5ncncc5Nc5ccc(F)cc5C(=O)N(CC)C(C)C)CC4)C3)cc2)C1`, for which the pIC50 was 5.90 in the data set on MV4-11 [1], 7.50 in [2] and less than 4.70 with REH.

Consider `CCN(C(=O)c1cc(F)ccc1Oc1cncnc1N1CCN(CC2CN(c3ccc(S(=O)(=O)C4CN(C(=O)/C=C/CN(C)C)C4)cc3)C2)CC1)C(C)C`, for which the pIC50 in the data set on MV4-11 [1] is 7.40; in [2] it was 7.84; in the data set with REH, 4.94.

`C[C@@H]1C[C@@H]([C@H](O)CC2CC(=O)NC(=O)C2)C(=O)[C@@H](C)C1` [CYCLOHEXIMIDE]: the “fold change (FC)” value was 0.41 in [6], 0.55 in [7], 0.007 in data set [8] and 0.007 in [9].

`CCN(C(=O)c1cc(F)ccc1Nc1cncnc1N1CCN(CC2CN(c3ccc(C#N)cc3)C2)CC1)C(C)C` gave a pIC50 in data set [2] of 7.41.

In the case of `C=CC(=O)NC1CN(S(=O)(=O)c2ccc(N3CC(CN4CCN(c5ncncc5Nc5ccc(F)cc5C(=O)N(CC)C(C)C)CC4)C3)cc2)C1`, the pIC50 in the data set with MV4-11 [1] is 6.55; in [2], 7.64; in the data set with REH it was less than 4.70.

`CCC(=O)N[C@@H]1CCN(S(=O)(=O)c2ccc(N3CC(CN4CCN(c5ncncc5Nc5ccc(F)cc5C(=O)N(CC)C(C)C)CC4)C3)cc2)C1`: the pIC50 is 5.83 with MV4-11 [1], 7.28 in data set [2] and less than 4.70 in the data set on REH.

As to `CCC(=O)NC1CN(S(=O)(=O)c2ccc(N3CC(CN4CCN(c5ncncc5Nc5ccc(F)cc5C(=O)N(CC)C(C)C)CC4)C3)cc2)C1`, the figures for the negative logarithm of the IC50 (pIC50) (in the data set on MV4-11 [1]; in data set [2]; with REH) were 6.06, 7.47 and less than 4.70, respectively.

Turning to `C=CC(=O)Nc1cccc(N2CC(CN3CCN(c4ncncc4Nc4ccc(F)cc4C(=O)N(C(C)C)C(C)C)CC3)C2)c1`, the pIC50 is 5.88 in the data set on MV4-11 [1], 7.01 in [2] and 5.35 in the data set with REH.

As for `CCN(C(=O)c1cc(F)ccc1Nc1cncnc1N1CCN(CC2CN(c3ccc(S(=O)(=O)C4CN(C(=O)/C=C/CN5CCCC5)C4)cc3)C2)CC1)C(C)C`, the pIC50 is 7.49 in the data set on MV4-11 [1], 7.79 in [2] and 5.16 in the data set with REH.
